Tests used:
Neprilysin [1] = target: T1, Neprilysin (Homo sapiens, UniProt P08473); assay: Inhibition of NEP (unknown origin)
Neprilysin [2] = target: T1, Neprilysin; assay: Binding affinity to NEP (unknown origin) assessed as inhibition constant
[3] = target: T2, Type-2 angiotensin II receptor (Homo sapiens, UniProt P50052); assay: Inhibition of Angiotensin-2 receptor (unknown origin)
T2 sequence (P50052 whole entry): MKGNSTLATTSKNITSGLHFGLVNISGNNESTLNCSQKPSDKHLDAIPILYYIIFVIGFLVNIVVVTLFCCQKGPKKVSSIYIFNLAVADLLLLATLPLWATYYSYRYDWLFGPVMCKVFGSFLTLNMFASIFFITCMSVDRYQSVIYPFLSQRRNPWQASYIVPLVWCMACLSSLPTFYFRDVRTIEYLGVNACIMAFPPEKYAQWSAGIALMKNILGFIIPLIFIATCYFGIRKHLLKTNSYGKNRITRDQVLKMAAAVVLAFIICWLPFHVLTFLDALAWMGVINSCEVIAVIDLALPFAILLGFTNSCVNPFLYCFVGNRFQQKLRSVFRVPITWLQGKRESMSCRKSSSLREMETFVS

T1 sequence (P08473 whole entry): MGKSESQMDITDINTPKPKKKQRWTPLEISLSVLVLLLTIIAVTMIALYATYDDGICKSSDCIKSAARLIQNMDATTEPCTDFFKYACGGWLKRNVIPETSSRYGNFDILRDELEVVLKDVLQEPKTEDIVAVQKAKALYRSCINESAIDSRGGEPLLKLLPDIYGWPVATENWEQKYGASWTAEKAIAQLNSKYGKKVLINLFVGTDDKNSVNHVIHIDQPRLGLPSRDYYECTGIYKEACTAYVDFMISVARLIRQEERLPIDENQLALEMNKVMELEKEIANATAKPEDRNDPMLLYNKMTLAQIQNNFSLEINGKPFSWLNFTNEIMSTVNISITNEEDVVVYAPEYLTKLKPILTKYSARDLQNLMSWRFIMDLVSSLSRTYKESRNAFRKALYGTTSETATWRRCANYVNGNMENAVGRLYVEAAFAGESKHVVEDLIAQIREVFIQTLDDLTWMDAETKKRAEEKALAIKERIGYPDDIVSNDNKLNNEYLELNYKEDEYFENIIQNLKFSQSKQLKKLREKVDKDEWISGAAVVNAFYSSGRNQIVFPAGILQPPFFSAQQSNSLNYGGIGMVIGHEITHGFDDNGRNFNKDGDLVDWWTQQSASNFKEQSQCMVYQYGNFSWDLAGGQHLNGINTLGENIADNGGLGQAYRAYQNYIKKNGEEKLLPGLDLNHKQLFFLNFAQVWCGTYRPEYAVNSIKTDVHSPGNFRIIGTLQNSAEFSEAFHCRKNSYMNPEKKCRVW

| Structure (SMILES) | IC50 (Neprilysin [1]) [nM] | Ki (Neprilysin [2]) [nM] | IC50 [3] [nM] |
| --- | --- | --- | --- |
| SC[C@@H](Cc1ccccc1)c1nc2cnccc2[nH]1 | 40 |  |  |
| COC(c1ccccc1)c1cnc(C(CS)Cc2ccccc2)[nH]1 (stereo not drawn) | 1700 |  |  |
| SC[C@@H](Cc1ccc(-c2ccccc2)cc1)c1nc2cnccc2[nH]1 | 30 |  |  |
| COCCOC[C@H](CC1(C(=O)N[C@H]2CC[C@@H](C(=O)O)CC2)CCCC1)C(=O)O [CANDOXATRILAT] |  | 6.1 |  |
| COc1cc(/C=C2\CCC/C(=C\c3ccc(O)c(OC)c3)C2=O)ccc1O [CYCLOVALONE] |  | 0.64 |  |
| O=C(N[C@H]1CCS[C@H]2CCC[C@@H](C(=O)O)N2C1=O)[C@@H](S)Cc1ccccc1 [OMAPATRILAT] | 5 | 0.45 |  |
| N[C@@H](Cc1ccc(Oc2cc(I)c(O)c(I)c2)c(I)c1)C(=O)O [REVERSE TRIIODOTHYRONINE] |  |  | 29800 |
